Measurements: US4440933A, “Process for preparing 1,2,5-thiadiazoles” (Bristol-Myers Company, priority 1983, dated 1984)
Where two headings read alike, the source gives them in different places.

Legend:
gastric acid secretion = experiment: Gastric antisecretory activity in the gastric fistula rat; type: in vivo, rat (male Long Evans); details: sc, read-out: ED50 sc
histamine H2-receptor = biological target: T1, histamine H2-receptor (Cavia porcellus, UniProt P47747); details: Black et al., Nature, 236, 385 (1972); cited from earlier work
T1 construct: The spontaneously beating right atrium was dissected free from other tissues; from tissue; host or cells: isolated spontaneously beating right atrium of male Hartley strain guinea pigs
T1 sequence (P47747 whole entry): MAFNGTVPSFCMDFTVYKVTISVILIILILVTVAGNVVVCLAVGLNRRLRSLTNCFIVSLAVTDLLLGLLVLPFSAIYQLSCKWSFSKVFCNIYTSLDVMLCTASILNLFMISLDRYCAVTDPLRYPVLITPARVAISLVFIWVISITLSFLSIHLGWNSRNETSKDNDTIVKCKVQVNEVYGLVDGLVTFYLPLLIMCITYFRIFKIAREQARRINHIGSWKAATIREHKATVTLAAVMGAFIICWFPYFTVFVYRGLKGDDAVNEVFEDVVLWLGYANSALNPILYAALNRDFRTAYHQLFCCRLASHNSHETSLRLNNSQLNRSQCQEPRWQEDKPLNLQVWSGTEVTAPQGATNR

peptic ulcer disease = details: clinical evaluation, Gray et al., Lancet, 1, 8001 (1977); cited from earlier work

Nc1nsnc1NCCCOc1cccc(CN2CCCCC2)c1 [Example 3, 3-Amino-4-[3-(3-piperidinomethylphenoxy)propylamino]-1,2,5-thiadiazole]
ED50 (gastric acid secretion; gastric fistula rat): 0.094 µmol/kg

Nc1nsnc1NCCCOc1cccc(CN2CCCC2)c1 [Example 4, 3-Amino-4-[3-(3-pyrrolidinomethylphenoxy)propylamino]-1,2,5-thiadiazole]
ED50 (gastric acid secretion; gastric fistula rat): 0.18 µmol/kg

CN(C)Cc1ccc(CSCCNc2nsnc2N)o1 [Example 10, 3-amino-4-{2-[(5-dimethylaminomethyl-2-furyl)-methylthio]ethylamino}-1,2,5-thiadiazole]
ED50 (gastric acid secretion; gastric fistula rat): 0.77 µmol/kg

Cc1cc(CSCCNc2nsnc2N)sc1CN(C)C [Example 11, 3-Amino-4-{2-[(5-dimethylaminomethyl-4-methyl-2-thienyl)methylthio]ethylamino}-1,2,5-thiadiazole]
ED50 (gastric acid secretion; gastric fistula rat): ~0.5 µmol/kg

CNC(=S)NCCCCc1cnc[nH]1 [burimamide]
type of antagonism at histamine H2-receptors (histamine H2-receptor): competitive antagonist

CN/C(=N/CCSCc1nc[nH]c1C)NC#N [cimetidine, reference compound]
therapeutic effect in treatment of peptic ulcer disease (peptic ulcer disease): effective therapeutic agent in the treatment of peptic ulcer disease | ED50 (gastric acid secretion; Rattus norvegicus): 3.48 µmol/kg
